Values of other authors in patent US12358215B2, “Binders and methods of binder jetting including branched polymer binders and articles made therefrom” (VIRGINIA TECH INTELLECTUAL PROPERTIES, INC., priority 2019, dated 2025).

## CC(=O)Nc1ccc(O)cc1 [Acetaminophen, acetaminophen]
  solubility in cold water: only slightly soluble
